Source: patent US20080010691A1, “Method of Screening Therapeutic Agent for Irritable Bowel Syndrome” (priority 2005, published 2008)
Where a name gives a salt, the structure may show the parent alone. Marks after values point to notes of the source that are not given here.

Assays:
[1] = system: conditioned fear stressed animal model (distal large intestine transport); experiment: Distal large intestine transport ability by beads discharge method after CFS loading; type: in vivo, rat; conditions: control group 13.70, normal group 0.38
Protocol: (§1) Male Sprague-Dawley rats (6 to 7 weeks of age, CLEA Japan) were used. The rats which passed about 1 week after their receipt were used in the test by 12 animals per group. The electric shock conditions were set in accordance with Example 1. That is, the rats were put into an electric shock device (17×17×39 cm, CB 2000 type, O'Hara) having an electrode set in the floor, and after 3 seconds of warning sound, their conditioning was carried out by applying an electric current of 2.5 mA for 5 seconds per minute per once, a total of 15 times, and irradiating light at the time of the electric shock using 3 electric bulbs of 40 w. The normal group was put into the electric shock device by the same protocol, but without applying the electric shock. From 20 to 24 hours thereafter, each drug to be tested was orally administered to each animal by force at a dose of 5 mL/kg, they were again put into the electric shock device 1 hour thereafter, and then a conditioned fear stress (CFS) loading was carried out by applying 3 seconds of warning sound and subsequent 5 seconds of light irradiation for 30 minutes.
Measurement of large intestine transport ability by a beads discharge method was carried out by modifying the method of Negri et al. (British Journal of Pharmacology, 1999, no. 128, p. 1554-60). That is, under light ether anesthesia, silicon beads (3 mm in diameter) were inserted in a length of 3 cm into the rectum side from the anus part using a silicon rod. After waking, the silicon rod was immediately removed to carry out CFS loading. The CFS loading starting time and silicon beads discharging time were recorded, and the measurement finishing time was set to 90 minutes in CFS group and 8 hours in normal group after the starting of the measurement. The distal large intestine transport ability (mm/min) was calculated as 30 mm÷required beads discharge time (min).

[2] = system: conditioned fear stressed animal model (freezing behavior); experiment: CFS-induced freezing behavior; type: in vivo, rat; conditions: oral; for influence upon CFS-induced freezing behavior: 30 minutes observation after CFS loading, all of the doses tested
Text: (§2) Male Sprague-Dawley rats (6 weeks of age, CLEA Japan) were used. The rats which passed 1 week or more after their receipt were divided into groups of 12 animals per group in such a manner that their average values and standard deviations of body weight became almost the same. The electric shock conditions were set in accordance with the results of preliminary examinations. That is, the rats were put into an electric shock device (17×17×39 cm, CB 2000 type, O'Hara) having an electrode set in the floor, and after 3 seconds of warning sound, their conditioning was carried out by applying an electric current of 2 mA at the maximum for 5 seconds per once per minute, a total of 15 times, and irradiating light at the time of the electric shock using 3 electric bulbs of 40 w. The control group was put into the electric shock device by the same protocol, but without applying the electric shock. From 18 to 24 hours thereafter, each drug to be tested was orally administered to each animal by force at a dose of 5 mL/kg, they were again put into the electric shock device 1 hour thereafter, and then a conditioned fear stress (CFS) loading was carried out by applying 3 seconds of warning sound and subsequent 5 seconds of light irradiation for 30 minutes.
Regarding the measurement of freezing behavior (freezing), a case of not moving at all during 30 seconds other than the movement accompanied by breathing was evaluated as the freezing behavior. The evaluation times were set to 0, 1, 3, 5, 7, 9, 12, 13, 14, 17, 18, 19, 22, 23, 24, 27, 28 and 29 minutes after the CFS loading, and the measurement was carried out at intervals of 30 seconds per minute. The ratio (%) of showing the freezing behavior by each animal was calculated in 3 plots of from 0 to 9 minutes (Block 1), from 10 to 19 minutes (Block 2) and from 20 to 29 minutes (Block 3) after the loading.

[3] = system: conditioned fear stressed animal model (proximal large intestine transport); experiment: Proximal large intestine transport ability by marker method after CFS loading; type: in vivo, rat; conditions: 30 minutes after CFS loading
Protocol: as §1, with “test.” for “test by 12 animals per group.”
Measurement of proximal large intestine transport ability by a marker method was carried out by modifying the method of Kadowaki et al. (Journal of Pharmacology and Experimental Therapeutics, 1993, vol. 266, p. 74-80). That is, abdominal part of each rat was subjected to median incision (about 1 cm) under pentobarbital (50 mg/kg ip) anesthesia, and the ileocecal junction was extracted. A large intestinal part of about 1 cm from the connecting part was extracted from the neck by inserting canula (SP 50). The animals were individually reared for 5 days until the test, under conditions of free ingestion and free drinking. A Carmine Red solution (0.2 mL of 0.5% methyl cellulose solution containing 3 g of Carmine Red and 5 g of acacia) was injected trough the canula, CFS was loaded for 30 minutes by the aforementioned method, and then the animals were sacrificed by a decapitation device. By quickly carrying out median incision, large intestine starting part-anus part was extracted, and the whole length and marker shifting distance were measured using the canula insertion part as the starting point. The large intestine transport ability (%) was calculated as (marker shifting distance)÷(whole length)×100.

[4] = system: conditioned fear stressed animal model (abnormal evacuation); experiment: Conditioned fear stress (CFS)-induced abnormal evacuation, wet feces weight; type: in vivo, rat; conditions: oral administration 1 hour before CFS loading; 30 minutes CFS; linear regression, n=12
Text: as §2
The number of evacuations was recorded after 2, 4, 6, 8, 10, 15, 20, 25 and 30 minutes of the commencement of the CFS loading, and wet weights of feces were measured by recovering the feces at the time of the completion of the measurement. In addition, the feces were dried at 70° C. for 22 hours and then their dry weights were measured to calculate the moisture content. In this connection, the evacuations just after putting them into the measuring device were excluded from the measured values of the number of evacuations and feces weights.

[5] = system: conditioned fear stressed animal model; conditions: cited from earlier work; for freezing behavior: reported in the literature (Non-patent References 4-7)

Row | SMILES | influence upon CFS-induced freezing behavior [2] | ED50 value of the controlling ratio of wet feces weights increased by CFS loading [4] [mg/kg] | freezing behavior [5] | also measured
1 | Cc1[nH]cnc1CN1CCc2c(c3ccccc3n2C)C1=O [Alosetron hydrochloride, alosetron hydrochloride] | did not exert influence | 0.078 |  | Distal large intestine transport ability ([1]; dose 0.3 mg/kg oral): 5.04* mm/min; proximal large intestine transport rate increased by the CFS loading ([3]; 0.3 mg/kg oral): lowered
2 | Cc1nccn1C[C@H]1CCc2c(c3cccc4c3n2CCC4)C1=O [Cilansetron hydrochloride, cilansetron hydrochloride] | did not exert influence | 0.094 |  | Distal large intestine transport ability ([1]; dose 0.3 mg/kg oral): 5.06** mm/min; proximal large intestine transport rate increased by the CFS loading ([3]; 0.3 mg/kg oral): lowered
3 | CN(C)C(=O)C(CCN1CCC(O)(c2ccc(Cl)cc2)CC1)(c1ccccc1)c1ccccc1 [Loperamide hydrochloride, loperamide hydrochloride] |  | 9.000 |  | Distal large intestine transport ability ([1]; dose 10 mg/kg oral): 3.64** mm/min; freezing behavior-expressing time of 20 to 29 minutes after CFS loading (Block 3) ([2]; action significant at a dose of 30 mg/kg): dose-dependently prolonged; proximal large intestine transport rate increased by the CFS loading ([3]; 10 mg/kg oral): lowered
4 | Cn1cc(C(=O)[C@@H]2CCc3nc[nH]c3C2)c2ccccc21 [Ramosetron hydrochloride, ramosetron hydrochloride] | did not exert influence | 0.012 |  | Distal large intestine transport ability ([1]; dose 0.1 mg/kg oral): 4.93** mm/min; proximal large intestine transport rate increased by the CFS loading ([3]; 0.1 mg/kg oral): lowered
5 | CN1C(=O)CN=C(c2ccccc2)c2cc(Cl)ccc21 [diazepam] |  |  | suppressed | 
6 | CNCCC(Oc1ccc(C(F)(F)F)cc1)c1ccccc1 (centres unmarked) [fluoxetine] |  |  | suppressed | bowel movement ([5]; reported in the literature (Non-patent References 5-7)): suppressed
7 | Cc1ncc2n1-c1ccc(Cl)cc1C(c1ccccc1F)=NC2 [midazolam] |  |  | suppressed | 
